Measured values as given in patent US20160272617A1, “SUBSTITUTED PHENYLALANINE DERIVATIVES” (BAYER PHARMA AKTIENGESELLSCHAFT, priority 2013, published 2016).
Where a name gives a salt, the structure may show the parent alone.

Assays:
[1] = test system: human and animal plasma; assay: Determination of anticoagulatory activity: activated partial thromboplastin time (aPTT) in plasma; conditions: concentration of test substance which brings about a 1.5-fold extension of the aPTT; plasma species not given
In short: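 Citrated plasma (1:9, 0.11 M citrate; 4000 g, 15 min) from human or animal blood incubated with test compound and cephalin/kaolin PTT reagent for 3 min at 37° C.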

[2] = target: T1, human factor XIa (Homo sapiens, UniProt P03951); assay: Measurement of FXIa inhibition (fluorogenic peptide substrate Boc-Glu(OBzl)-Ala-Arg-AMC); type: biochemical; conditions: factor XIa from Kordia, 15 min preincubation, 30 min at 22° C., fluorescence
T1 construct: purchased Kordia
In short: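 Released AMC fluorescence (360/460 nm) read after 30 min at 22 °C. The reaction was started with Boc-Glu(OBzl)-Ala-Arg-AMC (10 μM stock) after a 15 min preincubation of the enzyme (0.45 nM stock) with compound (final 50 μM to 0.00013 μM).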

T1 sequence (P03951 388-625 limits assumed): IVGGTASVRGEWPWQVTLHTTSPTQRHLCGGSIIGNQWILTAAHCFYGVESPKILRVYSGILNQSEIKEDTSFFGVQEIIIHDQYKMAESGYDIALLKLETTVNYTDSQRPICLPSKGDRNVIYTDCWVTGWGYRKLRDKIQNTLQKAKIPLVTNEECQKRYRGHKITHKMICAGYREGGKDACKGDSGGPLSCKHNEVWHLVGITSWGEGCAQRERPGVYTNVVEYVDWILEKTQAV
T1 sequence (P03951 19-387 partner limits assumed): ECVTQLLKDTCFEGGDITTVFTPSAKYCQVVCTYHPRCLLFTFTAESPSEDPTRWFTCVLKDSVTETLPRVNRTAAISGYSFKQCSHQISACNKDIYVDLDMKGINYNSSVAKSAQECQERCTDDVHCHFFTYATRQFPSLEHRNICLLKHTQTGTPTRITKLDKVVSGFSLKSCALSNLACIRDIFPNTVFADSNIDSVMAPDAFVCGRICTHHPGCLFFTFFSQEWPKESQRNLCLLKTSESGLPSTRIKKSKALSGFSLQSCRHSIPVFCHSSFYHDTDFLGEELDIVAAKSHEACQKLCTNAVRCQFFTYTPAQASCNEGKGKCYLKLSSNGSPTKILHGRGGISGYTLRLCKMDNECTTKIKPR

| Structure (SMILES) | aPTT [1] [µmol/L] | IC50 [2] [nM] |
| --- | --- | --- |
| Cc1cc(C(=O)NC2CCNCC2)ccc1-c1ccc(C[C@H](NC(=O)[C@H]2CC[C@H](CN)CC2)C(=O)Nc2ccc3nc(-c4cccnc4)[nH]c3c2)cc1 [Example 59, 4′-[(2S)-2-({[trans-4-(Aminomethyl)cyclohexyl]carbonyl}amino)-3-oxo-3-{[2-(pyridin-3-yl)-1H-benzimidazol-6-yl]amino}propyl]-2-methyl-N-(piperidin-4-yl)biphenyl-4-carboxamide hydrochloride] | 0.51 | 34 |
| Cc1cc(C(=O)NC2CCNCC2)ccc1-c1ccc(C[C@H](NC(=O)[C@H]2CC[C@H](CN)CC2)C(=O)Nc2ccc3nc(-n4cccn4)[nH]c3c2)cc1 [Example 60, 4′-[(2S)-2-({[trans-4-(Aminomethyl)cyclohexyl]carbonyl}amino)-3-oxo-3-{[2-(1H-pyrazol-1-yl)-1H-benzimidazol-6-yl]amino}propyl]-2-methyl-N-(piperidin-4-yl)biphenyl-4-carboxamide hydrochloride] | 0.63 | 45 |
| Cc1cc(C(=O)NC2CCNCC2)ccc1-c1ccc(C[C@H](NC(=O)[C@H]2CC[C@H](CN)CC2)C(=O)Nc2ccc(-c3nn[nH]n3)cc2)cc1F [Example 61, 4′-[(2S)-2-({[trans-4-(Aminomethyl)cyclohexyl]carbonyl}amino)-3-oxo-3-{[4-(2H-tetrazol-5-yl)phenyl]amino}propyl]-2′-fluoro-2-methyl-N-(piperidin-4-yl)biphenyl-4-carboxamide hydrochloride] | 0.07 | 3.2 |
| NC[C@H]1CC[C@H](C(=O)N[C@@H](Cc2ccc(-c3ccc(C(=O)NC4CC4)cc3)cc2)C(=O)Nc2ccc(-c3nnn[nH]3)cc2)CC1 [Example 62, 4′-[(2S)-2-({[trans-4-(Aminomethyl)cyclohexyl]carbonyl}amino)-3-oxo-3-{[4-(1H-tetrazol-5-yl)phenyl]amino}propyl]-N-cyclopropylbiphenyl-4-carboxamide hydrochloride] | 0.53 | 2.9 |
| Cc1cc(C(=O)NC2CCC(N(C)C)CC2)ccc1-c1ccc(C[C@H](NC(=O)[C@H]2CC[C@H](CN)CC2)C(=O)Nc2ccc(-c3nn[nH]n3)c(F)c2)cc1 (stereo partly drawn) [Example 63, 4′-[(2S)-2-({[trans-4-(Aminomethyl)cyclohexyl]carbonyl}amino)-3-{[3-fluoro-4-(2H-tetrazol-5-yl)phenyl]amino}-3-oxopropyl]-N-[4-(dimethylamino)cyclohexyl]-2-methylbiphenyl-4-carboxamide hydrochloride] | 0.01 | 2.1 |
| Cc1cc(C(=O)NC2CCNCC2)ccc1-c1ccc(C[C@H](NC(=O)[C@H]2CC[C@H](CN)CC2)C(=O)Nc2ccc3[nH]c(C(F)(F)C(F)(F)C(F)(F)C(=O)O)nc3c2)cc1 [Example 65, 4-[5-({(2S)-2-({[trans-4-(Aminomethyl)cyclohexyl]carbonyl}amino)-3-[2′-methyl-4′-(piperidin-4-ylcarbamoyl)biphenyl-4-yl]propanoyl}amino)-1H-benzimidazol-2-yl]-2,2,3,3,4,4-hexafluorobutanoic acid hydrochloride] | 0.48 | 26 |
| Cc1cc(C(=O)NC2CCN(C)CC2)ccc1-c1ccc(C[C@H](NC(=O)[C@H]2CC[C@H](CN)CC2)C(=O)Nc2ccc3[nH]c(C(F)(F)F)nc3c2)cc1 [Example 76, 4′-[(2S)-2-({[trans-4-(Aminomethyl)cyclohexyl]carbonyl}amino)-3-oxo-3-{[2-(trifluoromethyl)-1H-benzimidazol-5-yl]amino}propyl]-2-methyl-N-(1-methylpiperidin-4-yl)biphenyl-4-carboxamide hydrochloride] | 0.37 | 25 |
| Cc1cc(C(=O)NC2CCC(N(C)C)CC2)ccc1-c1ccc(C[C@H](NC(=O)[C@H]2CC[C@H](CN)CC2)C(=O)Nc2ccc3[nH]c(C(F)(F)F)nc3c2)cc1 (stereo partly drawn) [Example 77, 4′-[(2S)-2-({[trans-4-(Aminomethyl)cyclohexyl]carbonyl}amino)-3-oxo-3-{[2-(trifluoromethyl)-1H-benzimidazol-5-yl]amino}propyl]-N-[4-(dimethylamino)cyclohexyl]-2-methylbiphenyl-4-carboxamide hydrochloride] | 0.22 | 8.4 |
| Cc1cc(C(=O)N[C@H]2CC[C@H](N(C)C)CC2)ccc1-c1ccc(C[C@H](NC(=O)[C@H]2CC[C@H](CN)CC2)C(=O)Nc2ccc3[nH]c(C(F)(F)C(F)(F)F)nc3c2)cc1 [Example 78, 4′-[(2S)-2-({[trans-4-(Aminomethyl)cyclohexyl]carbonyl}amino)-3-oxo-3-{[2-(pentafluoroethyl)-1H-benzimidazol-5-yl]amino}propyl]-N-[4-(dimethylamino)cyclohexyl]-2-methylbiphenyl-4-carboxamide hydrochloride] | 0.38 | 12 |
| Cc1cc(C(=O)N[C@H]2CC[C@H](N)CC2)ccc1-c1ccc(C[C@H](NC(=O)[C@H]2CC[C@H](CN)CC2)C(=O)Nc2ccc3[nH]c(C(F)(F)C(F)(F)F)nc3c2)cc1 [Example 79, N-(trans-4-Aminocyclohexyl)-4′-[(2S)-2-({[trans-4-(aminomethyl)cyclohexyl]carbonyl}amino)-3-oxo-3-{[2-(pentafluoroethyl)-1H-benzimidazol-5-yl]amino}propyl]-2-methylbiphenyl-4-carboxamide hydrochloride] | 0.21 | 12 |
| Cc1cc(C(=O)N[C@@H]2CCNC2)ccc1-c1ccc(C[C@H](NC(=O)[C@H]2CC[C@H](CN)CC2)C(=O)Nc2ccc3[nH]c(C(F)(F)C(F)(F)F)nc3c2)cc1 [Example 80, 4′-[(2S)-2-({[trans-4-(Aminomethyl)cyclohexyl]carbonyl}amino)-3-oxo-3-{[2-(pentafluoroethyl)-1H-benzimidazol-5-yl]amino}propyl]-2-methyl-N-[(3R)-pyrrolidin-3-yl]biphenyl-4-carboxamide hydrochloride] | 0.41 | 17 |
| Cc1cc(C(=O)NCCCN(C)C)ccc1-c1ccc(C[C@H](NC(=O)[C@H]2CC[C@H](CN)CC2)C(=O)Nc2ccc3[nH]c(C(F)(F)C(F)(F)F)nc3c2)cc1 [Example 81, 4′-[(2S)-2-({[trans-4-(Aminomethyl)cyclohexyl]carbonyl}amino)-3-oxo-3-{[2-(pentafluoroethyl)-1H-benzimidazol-5-yl]amino}propyl]-N-[3-(dimethylamino)propyl]-2-methylbiphenyl-4-carboxamide hydrochloride] | 0.41 | 22 |
| Cc1cc(C(=O)NC2CCN(C)CC2)ccc1-c1ccc(C[C@H](NC(=O)[C@H]2CC[C@H](CN)CC2)C(=O)Nc2ccc3[nH]c(C(F)(F)C(F)(F)F)nc3c2)cc1 [Example 82, 4′-[(2S)-2-({[trans-4-(Aminomethyl)cyclohexyl]carbonyl}amino)-3-oxo-3-{[2-(pentafluoroethyl)-1H-benzimidazol-5-yl]amino}propyl]-2-methyl-N-(1-methylpiperidin-4-yl)biphenyl-4-carboxamide hydrochloride] | 0.39 | 21 |
| Cc1cc(C(=O)N[C@H]2CCNC2)ccc1-c1ccc(C[C@H](NC(=O)[C@H]2CC[C@H](CN)CC2)C(=O)Nc2ccc(-c3nnc(Cl)[nH]3)cc2)cc1 [Example 83, 4′-[(2S)-2-({[trans-4-(Aminomethyl)cyclohexyl]carbonyl}amino)-3-{[4-(3-chloro-4H-1,2,4-triazol-5-yl)phenyl]amino}-3-oxopropyl]-2-methyl-N-[(3S)-pyrrolidin-3-yl]biphenyl-4-carboxamide hydrochloride] | 0.09 | 2.5 |
| Cc1cc(C(=O)NC2CCNCC2)ccc1-c1ccc(C[C@H](NC(=O)[C@H]2CC[C@H](CN)CC2)C(=O)Nc2ccc(-c3c[nH]cn3)cc2)cc1 [Example 84, 4′-[(2S)-2-({[trans-4-(Aminomethyl)cyclohexyl]carbonyl}amino)-3-{[4-(1H-imidazol-4-yl)phenyl]amino}-3-oxopropyl]-2-methyl-N-(piperidin-4-yl)biphenyl-4-carboxamide hydrochloride] | 0.3 | 18 |
| Cc1cc(C(=O)NC2CCNCC2)ccc1-c1ccc(C[C@H](NC(=O)[C@H]2CC[C@H](CN)CC2)C(=O)Nc2ccc3nc(C(F)(F)C(F)(F)C(F)(F)F)[nH]c3c2)cc1 [Example 85, 4′-[(2S)-2-({[trans-4-(Aminomethyl)cyclohexyl]carbonyl}amino)-3-{[2-(heptafluoropropyl)-1H-benzimidazol-6-yl]amino}-3-oxopropyl]-2-methyl-N-(piperidin-4-yl)biphenyl-4-carboxamide hydrochloride] | 0.12 | 16 |
| Cc1cc(C(=O)NC2CCNCC2)ccc1-c1ccc(C[C@H](NC(=O)[C@H]2CC[C@H](CN)CC2)C(=O)Nc2ccc3nc(C(F)F)[nH]c3c2)cc1 [Example 86, 4′-[(2S)-2-({[trans-4-(Aminomethyl)cyclohexyl]carbonyl}amino)-3-{[2-(difluoromethyl)-1H-benzimidazol-6-yl]amino}-3-oxopropyl]-2-methyl-N-(piperidin-4-yl)biphenyl-4-carboxamide hydrochloride] | 0.14 | 13 |
| Cc1cc(C(=O)NC2CCC(N(C)C)CC2)ccc1-c1ccc(C[C@H](NC(=O)[C@H]2CC[C@H](CN)CC2)C(=O)Nc2ccc(-c3nc(C(F)(F)C(F)(F)C(F)(F)F)n[nH]3)cc2)cc1 (stereo partly drawn) [Example 87, 4′-[(2S)-2-({[trans-4-(Aminomethyl)cyclohexyl]carbonyl}amino)-3-({4-[3-(heptafluoropropyl)-1H-1,2,4-triazol-5-yl]phenyl}amino)-3-oxopropyl]-N-[4-(dimethylamino)cyclohexyl]-2-methylbiphenyl-4-carboxamide hydrochloride] | 0.47 | 2.8 |
